Source: patent publication US20150197492A1, “NOVEL INDENO[1,2-c]QUINOLIN-11-ONE DERIVATIVES, PREPARATION METHOD AND APPLICATION THEREOF” (National Defense Medical Center, priority 2014, published 2015)

Assays:
Format in all cases: cell-based
HL-60 (TB) = assay: cells; conditions: HL-60 (TB) (Leukemia), 10 μM, 48 hours
SF-295 = assay: cells; conditions: SF-295 (CNS Cancer), 10 μM, 48 hours
IGROV1 = assay: cells; conditions: IGROV1 (Ovarian Cancer), 10 μM, 48 hours
OVCAR-4 = assay: cells; conditions: OVCAR-4 (Ovarian Cancer), 10 μM, 48 hours
SN12C = assay: cells; conditions: SN12C (Renal Cancer), 10 μM, 48 hours
HCT-116 = assay: cells; conditions: HCT-116 (Colon Cancer), 10 μM, 48 hours
LOX IMVI = assay: cells; conditions: LOX IMVI (Melanoma), 10 μM, 48 hours
A498 = assay: cells; conditions: A498 (Renal Cancer), 10 μM, 48 hours
BT-549 = assay: cells; conditions: BT-549 (Breast Cancer), 10 μM, 48 hours
K-562 = assay: cells; conditions: K-562 (Leukemia), 10 μM, 48 hours
MOLT-4 = assay: cells; conditions: MOLT-4 (Leukemia), 10 μM, 48 hours
SK-OV-3 = assay: cells; conditions: SK-OV-3 (Ovarian Cancer), 10 μM, 48 hours
PC-3 = assay: cells; conditions: PC-3 (Prostate Cancer), 10 μM, 48 hours
HCT-15 = assay: cells; conditions: HCT-15 (Colon Cancer), 10 μM, 48 hours
HT29 = assay: cells; conditions: HT29 (Colon Cancer), 10 μM, 48 hours
SR = assay: cells; conditions: SR (Leukemia), 10 μM, 48 hours
SW-620 = assay: cells; conditions: SW-620 (Colon Cancer), 10 μM, 48 hours
M14 = assay: cells; conditions: M14 (Melanoma), 10 μM, 48 hours
SF-268 = assay: cells; conditions: SF-268 (CNS Cancer), 10 μM, 48 hours
NCI-H460 = assay: cells; conditions: NCI-H460 (Non-Small Cell Lung Cancer), 10 μM, 48 hours
TK-10 = assay: cells; conditions: TK-10 (Renal Cancer), 10 μM, 48 hours
ACHN = assay: cells; conditions: ACHN (Renal Cancer), 10 μM, 48 hours
[1] = test system: 55 to 60 cancer cell lines; conditions: 10 μM, 48 hours, all tested cell lines
NCI-H23 = assay: cells; conditions: NCI-H23 (Non-Small Cell Lung Cancer), 10 μM, 48 hours
human PC-3 cells = assay: Sulforhodamine B (SRB) assay, cytotoxicity against PC-3 cells; conditions: SRB assay, PC-3 cells
Method in brief: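 PC-3 cells in 5% FBS were fixed with 10% TCA after 24 h as T0, then treated with compound for 48 h, fixed, stained with 0.4% SRB in 1% acetic acid and solubilized in 10 mmol/L Trizma base. Absorbance was read at 515 nm. GI% = 100−[(Tx−T0)/(C−T0)]×100, and IC50 is the concentration halving total protein.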

U251 = assay: cells; conditions: U251 (CNS Cancer), 10 μM, 48 hours
NCI-H322M = assay: cells; conditions: NCI-H322M (Non-Small Cell Lung Cancer), 10 μM, 48 hours
OVCAR-3 = assay: cells; conditions: OVCAR-3 (Ovarian Cancer), 10 μM, 48 hours
SK-MEL-28 = assay: cells; conditions: SK-MEL-28 (Melanoma), 10 μM, 48 hours
KM12 = assay: cells; conditions: KM12 (Colon Cancer), 10 μM, 48 hours

Compound | growth percentage (HL-60 (TB)) | growth percentage (SF-295) | growth percentage (IGROV1) | growth percentage (OVCAR-4) | growth percentage (SN12C) | growth percentage (HCT-116) | growth percentage (LOX IMVI) | growth percentage (A498) | growth percentage (BT-549) | growth percentage (K-562) | growth percentage (MOLT-4) | growth percentage (SK-OV-3) | growth percentage (PC-3) | growth percentage (HCT-15) | growth percentage (HT29) | growth percentage (SR) | growth percentage (SW-620) | growth percentage (M14) | growth percentage (SF-268) | growth percentage (NCI-H460) | other results
CN1CCN(c2nc3ccccc3c3c2-c2ccc(Cl)cc2C3=O)CC1 [SJ-12, 9-Chloro-6-(4-methylpiperazin-1-yl)-11H-indeno[1,2-c]quinolin-11-one] | 101.15% | 90.01% | 75.03% | 94.70% | 83.57% | 92.78% | 87.17% | 72.81% | 82.89% | 92.13% | 92.90% | 87.98% | 82.93% | 92.83% | 93.76% | 75.13% | 92.76% | 106.31% | 92.35% | 91.83% | growth percentage (TK-10): 99.56%; growth percentage (ACHN): 88.10%; Mean (mean growth percentage of the tested cancer cell lines) [1]: 88.15%; growth percentage (NCI-H23): 86.27%; Toxicity (%) (human PC-3 cells): 0%; GI % (10 μM) (human PC-3 cells): 39.4%; growth percentage (U251): 85.86%; growth percentage (NCI-H322M): 87.41%; growth percentage (OVCAR-3): 93.41%; growth percentage (SK-MEL-28): 110.81%; growth percentage (KM12): 99.06%
O=C1c2cc(Cl)ccc2-c2c(N3CCN(C(=O)N4CCCCC4)CC3)nc3ccccc3c21 [SJ-23] | 109.78% | 97.83% | 81.63% | 98.31% | 101.12% | 101.67% | 103.19% | 104.44% | 105.34% | 95.70% | 104.77% | 95.59% | 93.07% | 99.35% | 108.65% | 105.15% | 92.51% | 101.18% | 107.51% | 98.85% | growth percentage (TK-10): 131.97%; growth percentage (ACHN): 95.59%; Mean (mean growth percentage of the tested cancer cell lines) [1]: 100.53%; growth percentage (NCI-H23): 95.41%; Toxicity (%) (human PC-3 cells): 43%; GI % (10 μM) (human PC-3 cells): 100%; growth percentage (U251): 98.15%; growth percentage (NCI-H322M): 94.59%; growth percentage (OVCAR-3): 103.33%; growth percentage (SK-MEL-28): 107.03%; growth percentage (KM12): 101.58%
